{"source": "patent EP0126817A1", "about": "“Suppressing of graft rejection in organ transplantation” (SHANKSVILLE CORPORATION N.V., priority 1983, dated 1984)", "format_in_all_cases": "cell-based", "key": {"cytotoxic T lymphoblasts": {"tested_on": "cytotoxic T lymphoblasts", "assay": "Chromium release test: inhibition of tumor cell killing by cytotoxic T cells activated by interleukin 2", "details": "HeLa tumor cells labelled with radioactive chromium, 2 micrograms per ml of culture medium", "procedure": "The following test is conducted to determine the inhibition of tumor cell killing capability of cytotoxic T cells activated by interleukin 2. Tumor cells from HeLa strain are labelled with radioactive chromium. The cells are washed and divided into two portions comprising the same cell number. Both portions are coincubated with cytotoxic T lymphoblasts for 18 hours. The culture medium contains IL-2. To one of the portions, at the beginning of the cocultivation, desialo GM1 is added'in concentration of 2 micrograms per ml of culture medium. The culture medium is decanted and the cells are pelleted in a centrifuge."}, "T cell blasts": {"tested_on": "T cell blasts", "assay": "In vitro T cell culture systems containing IL-2 (general finding)", "text": "This observation therefore leads to an in vivo procedure for modification of the cell mediated immunological graft rejection mechanism by blocking the formation of cytotoxic T cells at the level of the T effector cells and without destroying macrophage cells. Accordingly, the procedure of the present invention is highly advantageous as compared to presently available techniques for transplant protection, particularly by the use of immunosuppressive drugs. […] Therefore, such drugs will subject the patient to increased risk of infectious diseases. […] At the time of the graft transplantation therefore, the consequence of IL-2 and T cell blasts will allow the latter to proliferate until the IL-2 is consumed. This process generally requires several days. In contrast, the immunosuppressive blocking agents of this invention require less than 24 hours to effectively terminate cytotoxic T cell proliferation and to kill off any existing cytotoxic T cells."}, "[1]": {"tested_on": "Peripheral blood lymphocytes", "assay": "T lymphocyte blast transformation in IL-2 containing culture medium pretreated with the ganglioside and dialysed", "details": "IL-2 medium RPMI 1640 treated with 5 micrograms per ml at 37°C for 30 minutes, dialysed 24 hours at 4°C; cells incubated 7 days", "procedure": "This Example illustrates that asialo GM1 reacts with a soluble mediator for T lymphocyte blastogenesis inhibiting cytotoxic T cell formation. Peripheral blood lymphocytes are isolated by a density gradient centrifugation on ficoll hypaque and incubated 24 hours in the absence of serum proteins. Interleukin 2 containing tissue culture medium RPMI 1640 is treated with asialo GM1 in a concentration of 5 micrograms per ml of culture medium. The incubation with asialo GM1 is performed at 37°C for 30 minutes. Thereafter,the treated culture medium is dialysed against RPMI 1640 without supplements for 24 hours at a temperature of 4°C. The cells are incubated in the dialysed (and thus containing no free asialo GM1) culture medium for 7 days. For dialysis, the critical micellar concentration (CMC) of the ganglioside has to be regarded. If it is exceeded, dialysis will be impossible. CMC values for each ganglioside have been established, and are readily available."}}, "data": [{"substance": "Gal(beta 1-3)GalNac(beta 1-4)Glc(beta 1-1)Cer [asialo GM1]", "values": [{"measurement": "% of Cr released, Target and T cell", "setting": "cytotoxic T lymphoblasts; coincubated with cytotoxic T lymphoblasts for 18 hours, IL-2 medium", "value": 5.3, "unit": "%"}, {"measurement": "% of Cr released, Target and control", "setting": "cytotoxic T lymphoblasts; control in place of T cells, 18 hours", "value": 3.8, "unit": "%"}, {"measurement": "proliferation of T cell blasts in growing T cell lines", "setting": "T cell blasts", "value": "prevents proliferation of T cell blasts"}, {"measurement": "blast transformation of T cells", "setting": "[1]", "value": "no blast transformation of T cells is observed"}]}]}
